Activity calls are given as the source filed them. The rule behind the calls is not given here.
How the values were obtained:
HepG2 = experiment: Antiproliferative activity against human HepG2 cells assessed as reduction in cell viability incubated for 48 hrs by MTT assay; assay type: functional, cell-based; settings: HepG2, 48 h
HCT-116 = experiment: Antiproliferative activity against human HCT-116 cells assessed as reduction in cell viability incubated for 48 hrs by MTT assay; assay type: functional, cell-based; settings: HCT-116, 48 h
MIA PaCa-2 [1] = experiment: Induction of G2/M phase cell cycle arrest in human MIA PaCa-2 cells at 0.1 uM incubated for 24 hrs by PI/RNase staining based analysis (reference value: 20 +/- 1%); assay type: functional
MIA PaCa-2 [2] = experiment: Induction of G2/M phase cell cycle arrest in human MIA PaCa-2 cells assessed as S phase cells at 0.5 uM incubated for 24 hrs by PI/RNase staining based analysis (reference value: 11 +/- 1%); assay type: functional
Tubulin (Homo sapiens) = Tubulin (Homo sapiens) (UniProt P68371+Q9H4B7+P0DPH7+P68366+Q13509+Q71U36+P04350+Q3ZCM7+P07437+P68363+Q9BQE3+Q6PEY2+Q13885+Q9BVA1+Q9BUF5); experiment: Inhibition of tubulin (unknown origin) polymerization assessed as reduction microtubule formation at 10 uM by fluorometric analysis; assay type: protein-complex assay
MIA PaCa-2 [3] = experiment: Induction of G2/M phase cell cycle arrest in human MIA PaCa-2 cells at 0.5 uM incubated for 24 hrs by PI/RNase staining based analysis (reference value: 20 +/- 1%); assay type: functional
MIA PaCa-2 [4] = experiment: Induction of G2/M phase cell cycle arrest in human MIA PaCa-2 cells assessed as G1 phase cells at 0.1 uM incubated for 24 hrs by PI/RNase staining based analysis (reference value: 66 +/- 2%); assay type: functional
MIA PaCa-2 [5] = experiment: Induction of G2/M phase cell cycle arrest in human MIA PaCa-2 cells assessed as sub G1 phase cells at 0.5 uM incubated for 24 hrs by PI/RNase staining based analysis (reference value: 4 +/- 2%); assay type: functional
A549 = experiment: Antiproliferative activity against human A549 cells assessed as reduction in cell viability incubated for 48 hrs by MTT assay; assay type: functional, cell-based; settings: A549, 48 h
MIA PaCa-2 [6] = experiment: Induction of G2/M phase cell cycle arrest in human MIA PaCa-2 cells assessed as G1 phase cells at 0.5 uM incubated for 24 hrs by PI/RNase staining based analysis (reference value: 66 +/- 2%); assay type: functional
MIA PaCa-2 [7] = experiment: Induction of G2/M phase cell cycle arrest in human MIA PaCa-2 cells assessed as sub G1 phase cells at 0.1 uM incubated for 24 hrs by PI/RNase staining based analysis (reference value: 4 +/- 2%); assay type: functional
MIA PaCa-2 [8] = experiment: Induction of G2/M phase cell cycle arrest in human MIA PaCa-2 cells assessed as S phase cells at 0.1 uM incubated for 24 hrs by PI/RNase staining based analysis (reference value: 11 +/- 1%); assay type: functional
HeLa = experiment: Antiproliferative activity against human HeLa cells assessed as reduction in cell viability incubated for 48 hrs by MTT assay; assay type: functional, cell-based
WRL68 = experiment: Antiproliferative activity against human WRL68 cells assessed as reduction in cell viability incubated for 48 hrs by MTT assay; assay type: functional, cell-based; settings: WRL68, 48 h

COC(=O)Nc1nc2cc(C(=O)c3cccs3)ccc2[nH]1 [NOCODAZOLE]
IC50 (HepG2): 5.08 µM
IC50 (HCT-116): 1.81 µM
Activity (MIA PaCa-2 [1]): 37%
Activity (MIA PaCa-2 [2]): 9%
inhibition (Tubulin (Homo sapiens)): Active
Activity (MIA PaCa-2 [3]): 60%
Activity (MIA PaCa-2 [4]): 34%
Activity (MIA PaCa-2 [5]): 14%
IC50 (A549): 5.09 µM
Activity (MIA PaCa-2 [6]): 16%
Activity (MIA PaCa-2 [7]): 21%
Activity (MIA PaCa-2 [8]): 8%
IC50 (HeLa): 2.22 µM
IC50 (WRL68): 7.56 µM

— ChEMBL document CHEMBL5532698, “2,3-Dihydroquinazolin-4(1H)-ones and quinazolin-4(3H)-ones as broad-spectrum cytotoxic agents and their impact on tubulin polymerisation” (RSC Med Chem, 2024)
